Results on ten compounds are retold here after PMC9620171 (Journal of Medicinal Chemistry, 2022).

For data set [1], the system named is HSV. Conditions: lead optimization; ref 11 and data on file; cited from earlier work.
For data set [2] the following is noted: lead optimization; ref 11 and data on file; cited from earlier work.
Data set [3] concerns HSV-1. Kind of data set: Murine lethal challenge assay, intranasal HSV-1 infection. It counts as in vivo, mice. The conditions noted are these: using molar doses.
Data set [4] relates to HSV-2. As to the kind of experiment: Murine lethal challenge assay, intranasal HSV-2 infection. It counts as in vivo, mice. The conditions noted are these: using molar doses.
The nature of data set [5]: Pharmacokinetics after oral administration, rat. The conditions noted are these: in vivo, 1 mg/kg, elimination half-life in rodents.
Data set [6] can be described thus: Pharmacokinetics after oral administration, dog. The conditions noted are these: in vivo, 1 mg/kg.
Data set [7] is described as follows: Pharmacokinetics after oral administration, human. Conditions: in vivo, 100 mg.
A short description of data set [8]: Routes of elimination of pritelivir in humans. It counts as in vivo. Conditions: yields pyridinyl phenyl acetic acid and amino thiazole sulfonamide.
The subject of data set [9] is two human helicases, one nuclear and one located in the mitochondria. Kind of data set: Inhibition of human helicases. It counts as biochemical. Conditions: one nuclear and one mitochondrial human helicase.
In data set [10] the test system is liver, heart muscle, kidney, macrophages, monocytes, T lymphocytes, fibroblasts, and neuronal cells. Kind of data set: Cytotoxicity on a panel of different cell types. It counts as cell-based.
Data set [11] concerns bacterial reversion and mammalian cell chromosome aberration. As to the kind of experiment: Genotoxicity, standard ICH battery. It counts as cell-based. The conditions noted are these: in vitro; free base and mesylate monohydrate examined.
For data set [12], the system named is HSV. The conditions noted are these: rats; three daily oral doses, pritelivir 0.5 and 2 mg/kg, valacyclovir 45 and 135 mg/kg; cited from earlier work.
In data set [13] the test system is HSV-1. The conditions noted are these: cited from earlier work; for effectiveness on lesion score and virus shedding: wild-type HSV-1, postinfection day 1 to day 4.
In data set [14] the test system is HSV-1. The conditions noted are these: oral, start 72 h postinfection; cited from earlier work.
Data set [15] concerns HSV-2. Conditions: 10 and 30 mg/kg twice a day, start 72 h postinfection; cited from earlier work.
For data set [16], the system named is HSV-2. Conditions: cited from earlier work; for recurrence rate per 10-day period: early treatment days 0–4, follow-up up to 85 days, control 1.0; for time to return to a disease score of zero: control 14 days.
The subject of data set [17] is HSV-2. The conditions noted are these: day 3 to day 7 postinfection, cited from earlier work.
Data set [18] concerns HSV-1. Conditions: 24 h after heat stress; two oral doses of 50 mg/kg; controls 1.4 × 10^6; cited from earlier work.
The subject of data set [19] is HSV-1. The conditions noted are these: cited from earlier work.
Data set [20] has as its system HSV. Conditions: pritelivir-resistant, plaque-purified virus, in vitro; cited from earlier work.
In data set [21] the test system is other herpesviruses. Conditions: cited from earlier work.
The test system of data set [22] is acyclovir resistant, mucocutaneous HSV infection. Conditions: preliminary data, cited from earlier work.
For data set [23], the system named is HSV. Conditions: four times daily swabbing; cited from earlier work.
Data set [24] in a line: Physicochemical properties of pritelivir mesylate monohydrate. Conditions: 50 for the classification system.
For data set [25] the following is noted: compared with other salts and salt/hydrates; cited from earlier work.
For data set [26] the following is noted: after administration of its prodrug valacyclovir in experimental animals; cited from earlier work.
The conditions of data set [27]: cited from earlier work.

Structures are written as SMILES. Where two headings read alike, the source gives them in different places. A value given as a limit tells only on which side of the number the result lay.

With `CNS(=O)(=O)c1sc(N(C)C(=O)Nc2ccc(-c3ccccc3)cc2)nc1C` [Compound 3], the “in vivo activity / efficacy” value in data set [1] was “superior in vivo efficacy than valacyclovir”.
`Cc1nc(N(C)C(=O)Cc2ccc(-c3ccccc3)cc2)sc1S(N)(=O)=O` [Compound 9]: the “in vivo activity / efficacy” value in data set [1] is “high in vitro and in vivo activity”. Besides, the “solubility” value in data set [2] was “solubility remained a challenging issue”.
On to `Cc1nc(N(C)C(=O)Cc2ccc(-n3cccn3)cc2)sc1S(N)(=O)=O` [Compound 13], for which the “solubility” value in [2] is “improved solubility”.
`Cc1nc(N(C)C(=O)Cc2ccc(-c3c(C)noc3C)cc2)sc1S(N)(=O)=O` [Compound 14]: the “solubility” value in data set [2] is “improved solubility”.
With `Cc1nc(N(C)C(=O)Cc2ccc(-c3cccnc3)cc2)sc1S(N)(=O)=O` [Compound 15], the “solubility” value in data set [2] was “less soluble”.
One may read the half-life as how long it takes for the measured level to halve. A high value points to slow loss. By EC50 is commonly meant the concentration that produces a half-maximal response. On to `Cc1nc(N(C)C(=O)Cc2ccc(-c3ccccn3)cc2)sc1S(N)(=O)=O` [Compound 16, pritelivir], for which the “potency factor vs ganciclovir” value is on record as 8 fold in data set [3] and 3 fold in [4]. Also, the half-life in data set [5] was at least 5 h; in data set [6] it was at least 22 h; in data set [7], 60 to 70 h. Moreover, the “share of elimination by nonenzymatic hydrolysis” value in [8] is given as “more than 50%”. The “inhibition of human helicases” value in [9] is reported as “Neither of these enzymes was inhibited”. Besides, the “cytotoxicity” value in [10] is “lack of cytotoxicity”. In addition, the “genotoxic potential” value in [11] was “nongenotoxic”. For the same compound, in data set [1], the “in vivo activity / efficacy” value is given as “excellent in vivo activity”. Besides, the “efficacy compared with valacyclovir” value in [12] is recorded as “superior efficacy”. Further, the “efficacy against HSV-1 mutant without wild-type mixture” value in data set [13] (mutant alone, even at 60 mg/kg) is on record as “practically ineffective”. Besides, the “outcome of high-dose extended treatment” value in data set [13] (pritelivir-resistant HSV-1 strain, 60 mg/kg for 8 days) was “prevented mortality and weight loss”. Also, in [13] (pritelivir-resistant HSV-1 strain, oral 10 mg/kg, day 1 to day 4), the “influence on lesion score and virus shedding” value is “only marginal”. Further, the “effectiveness on lesion score and virus shedding” value was “largely” in data set [13] (oral 5 mg/kg) and “fully” in [13] (oral 10 mg/kg). Besides, in [14], the “b.i.d. dose at which 3-week mortality was already decreased” value is listed as 0.3 mg/kg. Further, in [15], the 3-week mortality entry was “no mortality”. Besides, the “recurrence rate per 10-day period” value in [16] (20 mg/kg b.i.d.) is reported as 0.4; in data set [16] (30 mg/kg b.i.d.) it was 0.3. Moreover, the “decrease of viral shedding compared to controls” value in data set [16] (day 2 postinfection, vaginal swabs, 20 mg/kg b.i.d.) is on record as 3 orders of magnitude. Further, the “viral load in sacral dorsal root ganglia” value in [16] (days 7, 25 and 85 postinfection, vs valacyclovir and control groups) is “considerably lower”. Further, the “time to return to a disease score of zero” value in [16] (oral 20 mg/kg b.i.d., day 4 to day 14 postinfection) is listed as 7 days. Besides, in data set [17] (oral 15 or 60 mg/kg t.i.d.), the “recurrence of lesion score after treatment” value is reported as “no such recurrence was observed”. The “mean viral genome copy number in trigeminal ganglia” value in data set [18] was 2.4 × 10^2. Besides, the EC50 in data set [19] (read-out: in vitro EC50, wild-type HSV-1, wild-type) is 30 nM. For the same compound, the “higher in vitro ED50 of pritelivir-resistant HSV-1 strain” value in [19] (resistant strain vs wild-type) is reported as 27 fold. In data set [20], the “frequency of resistant HSV mutants” value is on record as 0.5 to 4.5 × 10^–6. The “activity against other herpesviruses” value in data set [21] was “only weak (if any) activity”. Further, in data set [2], the “solubility” value was “much better solubility”. Moreover, the “subjects whose lesions improved but did not heal completely” value in data set [22] (of the 23 subjects treated) was 4 subjects. Besides, the “tolerability” value in data set [22] was “well tolerated without significant adverse effects”. In addition, in [23], the “efficacy vs valacyclovir in viral shedding rate and days with lesions” value is “superior efficacy vs valacyclovir”.
Turning to `CS(=O)(=O)O.Cc1nc(N(C)C(=O)Cc2ccc(-c3ccccn3)cc2)sc1S(N)(=O)=O.O` [Pritelivir mesylate monohydrate], the BCS class entry in data set [24] is “BCS class 2”. Also, the “stability under forced degradation conditions” value in [25] is given as “highest stability”.
Regarding `Nc1nc2c(ncn2COCCO)c(=O)[nH]1` [acyclovir], in [26], the acyclovir bioavailability is 58–84%.
As for `Nc1nc2c(ncn2CCC(CO)CO)c(=O)[nH]1` [penciclovir], the half-life of penciclovir in data set [27] (after dosing with the prodrug famciclovir) was 2.0 to 2.5 h. For the same compound, in [27] (human, penciclovir via famciclovir), the bioavailability is 60–77%.
As a reminder, the mortality is the percentage killed. As for `CC(C)[C@H](N)C(=O)OCCOCn1cnc2c(=O)nc(N)[nH]c21` [valacyclovir, reference compound], in [16] (100 mg/kg t.i.d. or 150 mg/kg b.i.d.), the “recurrence rate per 10-day period” value is on record as 0.9. For the same compound, in data set [16] (150 mg/kg b.i.d., delayed treatment), the “time to return to a disease score of zero” value is recorded as 12 days. Also, the “effect on viral shedding” value in data set [16] (valacyclovir 150 mg/kg b.i.d., vaginal swabs) is reported as “no discernible effect”. In [17] (oral 60 mg/kg t.i.d. (lower dose level)), the mortality is 100%.
